Consider one compound from US20060193931A1, “Nutritional or therapeutic composition containing the compound oleuropeine or one of the derivatives thereof” (priority 2003, published 2006).

Each structure is given as a SMILES string.

What all share (format): in vivo, rat (Wistar)
Series [1] relates to ovariectomized female rats, suffering from inflammation (OVX inf). As to the kind of experiment: Body weight and uterine weight in ovariectomized female rats with talc-induced inflammation (senile osteoporosis model). The note with it: OVX inf female Wistar rats. The protocol:
(§1) The experiment was conducted on 40 female rats Wistar aged 6 months, amongst which thirty were ovariectomized (OVX) and 10 pseudo-operated (SH). Animals were placed in metabolic cages enabling to separately collect the urines at a controlled temperature of 21±1° C., according to a 12 h-12 h nyctohemeral cycle. Following the surgical operation at Day0, animals were accustomed for seven days to a basic semisynthetic diet (INRA, Jouy-en-Josas, France), supplemented with 2.5% groundnut oil and 2.5% rapeseed oil and humidified to 1 ml water per gram powder. At the end of this adaptation period, the rats were separated in four homogeneous batches according to weight parameters and were fed for 72 days 22 g per day of following diets: • Batch SH/10 pseudo-operated female rats fed control diet (basic diet supplemented with 2.5% groundnut oil and 2.5% rapeseed oil), • Batch OVXinf: 10 ovariectomized female rats fed control diet, • Batch OL: 10 ovariectomized female rats fed control diet supplemented with 0.015% oleuropein. • Batch HO: 10 ovariectomized female rats fed basic diet supplemented with 5% extra-virgin olive oil.
(§2) Oil storage was kept away from light. Feed was prepared once a week and stored at +4° C.
(§3) At D55, that is 3 weeks before the end of the experiment, an inflammation was induced in each batch, except in control batch (SH). […]

Series [2] shares this test system. Description: Femur bone mineral density in ovariectomized female rats with talc-induced inflammation. Conditions: OVX inf female Wistar rats. On the procedure:
as §1, §2
At D55, that is 3 weeks before the end of the experiment, an inflammation was induced in each batch, except in control batch (SH). Four talc subcutaneous injections (3.2 g magnesium silicate (Sigma) suspended in […] physiological saline) were administrated in 4 distinct sites of the animal back.
The day of sacrifice (D80), animals were anesthetized with a chloral intraperitoneal injection (Fluka/8% solution, 0.4 ml/100 g of live weight). Blood samples were collected at abdominal aorta for dosing orosomucoid (inflammation marker, in particular of the acute phase for humans and rats (Fournier and al. 2000), that is produced by lever and other extra-hepatic sites under the control of II1, TNFα and II6 cytokines).
Femurs were collected and removed from adjacent soft tissues, then kept in 80% ethanol for bone density determination.

Series [3] shares this test system. As to the kind of experiment: Inflammation markers (plasma orosomucoid, spleen weight) in ovariectomized female rats with talc-induced inflammation. Conditions: OVX inf female Wistar rats; diet for 72 days; sacrifice D80; mean ± SEM. On the procedure:
as §1, §2, §3

The mark [4] stands for this setting: diet with 0.015% oleuropein or 5% extra-virgin olive oil for 72 days, sacrifice D80, mean ± SEM.
Setting [5] is: femur, oleuropein diet for 72 days.

For `C/C=C1/[C@H](O[C@@H]2O[C@H](CO)[C@@H](O)[C@H](O)[C@H]2O)OC=C(C(=O)OC)[C@H]1CC(=O)OCCc1ccc(O)c(O)c1` [oleuropein], the uterotrophic effect entry in series [1] (diet for 72 days, judged from uterine weight) is “free from any uterotrophic effect”. Moreover, in series [1] (setting [4]), the uterine weight was 0.034±0.001 g uterus/100 g body weight. Further, the “total bone mineral density (femur)” value in series [2] (setting [4]) was 0.2258±0.0028 g/cm^2. In series [2] (setting [5]), the “bone cortical substance density” value is “increase” and the “bone trabecular substance density” value was “increase”. Also, the spleen weight in series [3] is recorded as 0.201±0.011 g spleen/100 g body weight.
